Assay results from the NIST ThermoML archive (doi:10.1016/j.jct.2008.07.002).

Details: Transpiration method

Cn1c(=O)c2c(ncn2C)n(C)c1=O [caffeine]
Details	vapor or sublimation pressure [kPa]
366.2 K, Crystal 2	0.00017
373.3 K, Crystal 2	0.00033
379.9 K, Crystal 2	0.00055
383.9 K, Crystal 2	0.00077
386.9 K, Crystal 2	0.00106
389.8 K, Crystal 2	0.00128
395.9 K, Crystal 2	0.00223
400.9 K, Crystal 2	0.00338
405 K, Crystal 2	0.00441
406 K, Crystal 2	0.00525
408 K, Crystal 2	0.00577
410.1 K, Crystal 2	0.00693
420.2 K, Crystal 1	0.01448
424.9 K, Crystal 1	0.02064
430.1 K, Crystal 1	0.02868
434.5 K, Crystal 1	0.03685
